Source: PubChem BioAssay (NCI)
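48-hour exposure; five concentrations; linearly interpolated endpoints. At the GI50, growth is halved. At the TGI there is no net growth.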

Assays:
Test in all cases: NCI tumour cell line growth inhibition, 48 h
[1] = system: ACHN renal
[2] = system: SK-OV-3 ovarian
[3] = system: MOLT-4 leukemia
[4] = system: SNB-19 CNS
[5] = system: SK-MEL-28 melanoma
[6] = system: RXF 393 renal
[7] = system: U251 CNS
[8] = system: OVCAR-8 ovarian
[9] = system: SW-620 colon
[10] = system: SK-MEL-2 melanoma
[11] = system: COLO 205 colon
[12] = system: MCF7 breast
[13] = system: NCI/ADR-RES ovarian
[14] = system: SF-268 CNS
[15] = system: HCT-15 colon
[16] = system: OVCAR-4 ovarian
[17] = system: A549 NSCLC
[18] = system: NCI-H23 lung
[19] = system: BT-549 breast
[20] = system: SF-295 CNS
[21] = system: T-47D breast
[22] = system: KM12 colon
[23] = system: SN12C renal
[24] = system: IGROV1 ovarian
[25] = system: HS 578T breast
[26] = system: MALME-3M melanoma
[27] = system: HT29 colon
[28] = system: NCI-H226 lung
[29] = system: CCRF-CEM leukemia
[30] = system: RPMI-8226 leukemia
[31] = system: A498 renal
[32] = system: OVCAR-3 ovarian
[33] = system: NCI-H522 lung
[34] = system: HL-60(TB) leukemia
[35] = system: HCT-116 colon
[36] = system: PC-3 prostate
[37] = system: 786-0 renal
[38] = system: SR leukemia
[39] = system: LOX IMVI melanoma
[40] = system: OVCAR-5 ovarian
[41] = system: MDA-MB-231 breast
[42] = system: SK-MEL-5 melanoma
[43] = system: SF-539 CNS
[44] = system: M14 melanoma
[45] = system: UO-31 renal
[46] = system: MDA-MB-435
[47] = system: SNB-75 CNS
[48] = system: UACC-257 melanoma
[49] = system: K-562 leukemia
[50] = system: CAKI-1 renal
[51] = system: UACC-62 melanoma
[52] = system: DU-145 prostate
[53] = system: HOP-62 NSCLC
[54] = system: NCI-H460 lung
[55] = system: HOP-92 NSCLC
[56] = system: HCC-2998 colon
[57] = system: TK-10 renal

Compound: CS(=O)(=O)Nc1ccc(Nc2c3ccccc3nc3cc([N+](=O)[O-])ccc23)cc1
- GI50 [1]: 1.42 µM
- TGI [1]: 6.74 µM
- GI50 [2]: 3.5 µM
- TGI [2]: 15.1 µM
- GI50 [3]: 0.235 µM
- TGI [3]: 1.19 µM
- GI50 [4]: 1.61 µM
- TGI [4]: 14.9 µM
- GI50 [5]: 2.45 µM
- TGI [5]: 7.76 µM
- GI50 [6]: 1.89 µM
- TGI [6]: 4.86 µM
- GI50 [7]: 0.911 µM
- TGI [7]: 11.3 µM
- GI50 [8]: 1.95 µM
- TGI [8]: 9.53 µM
- GI50 [9]: 1.09 µM
- TGI [9]: 6 µM
- GI50 [10]: 3.46 µM
- TGI [10]: 8.85 µM
- GI50 [11]: 1.43 µM
- TGI [11]: 6.06 µM
- GI50 [12]: 0.0511 µM
- TGI [12]: 2.72 µM
- GI50 [13]: 10 µM
- TGI [13]: 26.5 µM
- GI50 [14]: 0.615 µM
- TGI [14]: 7.03 µM
- GI50 [15]: 1.38 µM
- TGI [15]: 4.01 µM
- GI50 [16]: 2.9 µM
- TGI [16]: 10.4 µM
- GI50 [17]: 0.317 µM
- TGI [17]: 12 µM
- GI50 [18]: 1.69 µM
- TGI [18]: 5.47 µM
- GI50 [19]: 2.29 µM
- TGI [19]: 9.32 µM
- GI50 [20]: 1.42 µM
- TGI [20]: 7.77 µM
- GI50 [21]: 0.107 µM
- TGI [21]: 2.23 µM
- GI50 [22]: 0.854 µM
- TGI [22]: 3.76 µM
- GI50 [23]: 0.807 µM
- TGI [23]: 8.43 µM
- GI50 [24]: 1.63 µM
- TGI [24]: 5.17 µM
- GI50 [25]: 2.42 µM
- TGI [25]: 13.4 µM
- GI50 [26]: 1.44 µM
- TGI [26]: 4.08 µM
- GI50 [27]: 2.14 µM
- TGI [27]: 6.13 µM
- GI50 [28]: 1.26 µM
- TGI [28]: 6.95 µM
- GI50 [29]: 0.352 µM
- TGI [29]: 2.79 µM
- GI50 [30]: 0.737 µM
- TGI [30]: 4.31 µM
- GI50 [31]: 1.28 µM
- TGI [31]: 12.5 µM
- GI50 [32]: 2.05 µM
- TGI [32]: 5.87 µM
- GI50 [33]: 1.27 µM
- TGI [33]: 2.8 µM
- GI50 [34]: 1.69 µM
- TGI [34]: 5.88 µM
- GI50 [35]: 1.1 µM
- TGI [35]: 6.16 µM
- GI50 [36]: 1.59 µM
- TGI [36]: 11.8 µM
- GI50 [37]: 1.39 µM
- TGI [37]: 10.6 µM
- GI50 [38]: 0.0837 µM
- TGI [38]: 3.16 µM
- GI50 [39]: 0.922 µM
- TGI [39]: 2.78 µM
- GI50 [40]: 7.94 µM
- TGI [40]: 23.1 µM
- GI50 [41]: 2.1 µM
- TGI [41]: 6.1 µM
- GI50 [42]: 1.1 µM
- TGI [42]: 4.37 µM
- GI50 [43]: 2.23 µM
- TGI [43]: 13 µM
- GI50 [44]: 1.42 µM
- TGI [44]: 5.81 µM
- GI50 [45]: 2.39 µM
- TGI [45]: 13.6 µM
- GI50 [46]: 3.32 µM
- TGI [46]: 9.06 µM
- GI50 [47]: 1.72 µM
- TGI [47]: 11.8 µM
- GI50 [48]: 1.82 µM
- TGI [48]: 6.44 µM
- GI50 [49]: 1.31 µM
- TGI [49]: 6.96 µM
- GI50 [50]: 2.01 µM
- TGI [50]: 7.43 µM
- GI50 [51]: 1.32 µM
- TGI [51]: 6.31 µM
- GI50 [52]: 0.296 µM
- TGI [52]: 6.5 µM
- GI50 [53]: 0.399 µM
- TGI [53]: 3.79 µM
- GI50 [54]: 0.041 µM
- TGI [54]: 2.75 µM
- GI50 [55]: 0.59 µM
- TGI [55]: 3.74 µM
- GI50 [56]: 1.62 µM
- TGI [56]: 4.24 µM
- GI50 [57]: 3.38 µM
- TGI [57]: 11.9 µM

Compound: COc1cccc(C(=O)c2sc(Nc3ccc(N4CCN(C(C)C)CC4)cc3)nc2N)c1
- GI50 [1]: 0.596 µM
- TGI [1]: > 25 µM
- GI50 [2]: 5.91 µM
- TGI [2]: > 24.1 µM
- GI50 [3]: 0.966 µM
- TGI [3]: 13.1 µM
- GI50 [4]: 1.04 µM
- TGI [4]: > 25 µM
- GI50 [5]: 1.85 µM
- TGI [5]: 7.05 µM
- GI50 [6]: 0.437 µM
- TGI [6]: 1.12 µM
- GI50 [7]: 0.949 µM
- TGI [7]: 7.1 µM
- GI50 [8]: 1.49 µM
- TGI [8]: 24.8 µM
- GI50 [9]: 0.853 µM
- TGI [9]: > 13.1 µM
- GI50 [10]: 1.8 µM
- TGI [10]: 5.49 µM
- GI50 [11]: 0.694 µM
- TGI [11]: 3.53 µM
- GI50 [12]: 0.473 µM
- TGI [12]: 3.38 µM
- GI50 [13]: 2.46 µM
- TGI [13]: > 22.9 µM
- GI50 [14]: 1.52 µM
- TGI [14]: 5.06 µM
- GI50 [15]: 0.962 µM
- TGI [15]: > 25 µM
- GI50 [16]: 3.48 µM
- TGI [16]: 16.2 µM
- GI50 [17]: 1.22 µM
- TGI [17]: 12.5 µM
- GI50 [18]: 1.42 µM
- TGI [18]: 8.01 µM
- GI50 [19]: 3.62 µM
- TGI [19]: 7.55 µM
- GI50 [20]: 2.55 µM
- TGI [20]: 8.83 µM
- GI50 [21]: 2.11 µM
- TGI [21]: 13.5 µM
- GI50 [22]: 0.889 µM
- TGI [22]: 7.13 µM
- GI50 [23]: 0.895 µM
- TGI [23]: 13.8 µM
- GI50 [24]: 2.14 µM
- TGI [24]: > 18.6 µM
- GI50 [25]: 2.42 µM
- TGI [25]: 11.4 µM
- GI50 [26]: 3.02 µM
- TGI [26]: 7.13 µM
- GI50 [27]: 0.997 µM
- TGI [27]: 12.8 µM
- GI50 [28]: 1.38 µM
- TGI [28]: > 22.8 µM
- GI50 [29]: 0.788 µM
- TGI [29]: 4.41 µM
- GI50 [30]: 1.34 µM
- TGI [30]: 6.52 µM
- GI50 [31]: 2.33 µM
- TGI [31]: 8.24 µM
- GI50 [32]: 1.52 µM
- TGI [32]: 9.18 µM
- GI50 [33]: 3.94 µM
- TGI [33]: 7.86 µM
- GI50 [34]: 0.661 µM
- TGI [34]: 2.73 µM
- GI50 [35]: 0.845 µM
- TGI [35]: > 25 µM
- GI50 [36]: 0.892 µM
- TGI [36]: 10.9 µM
- GI50 [37]: 1.61 µM
- TGI [37]: 5.76 µM
- GI50 [38]: 0.478 µM
- TGI [38]: > 7.24 µM
- GI50 [39]: 1.22 µM
- TGI [39]: 4.88 µM
- GI50 [40]: 0.769 µM
- TGI [40]: > 22.4 µM
- GI50 [41]: 1.84 µM
- TGI [41]: > 19.8 µM
- GI50 [42]: 1.33 µM
- TGI [42]: 5.21 µM
- GI50 [43]: 1.55 µM
- TGI [43]: 4.65 µM
- GI50 [44]: 2.96 µM
- TGI [44]: 7.12 µM
- GI50 [45]: 1.4 µM
- TGI [45]: 7.16 µM
- GI50 [46]: 1.63 µM
- TGI [46]: 5.68 µM
- GI50 [47]: 2.02 µM
- TGI [47]: 5.34 µM
- GI50 [48]: 3.03 µM
- TGI [48]: 6.34 µM
- GI50 [49]: 3.22 µM
- TGI [49]: > 22.1 µM
- GI50 [50]: 1.01 µM
- TGI [50]: > 8.2 µM
- GI50 [51]: 2.84 µM
- TGI [51]: 6.21 µM
- GI50 [52]: 1.14 µM
- TGI [52]: > 25 µM
- GI50 [53]: 1.57 µM
- TGI [53]: 11.9 µM
- GI50 [54]: 0.92 µM
- TGI [54]: 7.87 µM
- GI50 [55]: 0.545 µM
- TGI [55]: 4.38 µM
- GI50 [56]: 3.39 µM
- TGI [56]: 10.7 µM
- GI50 [57]: 1.34 µM
- TGI [57]: 9.19 µM
